Measured values from paper PMC9049205 (RSC Advances, 2020).
Like-named read-outs stand apart in the source and are kept apart here.

How the values were obtained:
[1] = tested on: influenza virus (A/PR/8/34 H1N1 strain); test: organism not typed; type: cell-based, Influenza A/PR/8/34 (H1N1); settings: for EC50: 48 h, read-out: Anti-influenza virus activity EC50
influenza A virus = settings: in vitro; cited from earlier work
avian influenza A H5N1 = settings: mouse, in vivo; cited from earlier work

Compound | SI (selectivity index: CC50/EC50) [1] | anti-influenza activity (in words) [1] | EC50 ([1]; MDCK) [µM] | median effective concentration (EC50), influenza A virus replication (influenza A virus) | protection of mice challenged with lethal doses of avian influenza A H5N1 (avian influenza A H5N1) | EC50 [1] [µM]
COc1nc2ccccc2cc1-c1noc(C)c1C(=O)N1CCC(c2ccc([N+](=O)[O-])cc2Cl)CC1 [Compound 1e, (4-(2-Chloro-4-nitrophenyl)piperidin-1-yl)(3-(2-methoxyquinolin-3-yl)-5-methylisoxazol-4-yl)methanone] | 2.52 | moderate activity | 9.905 ± 0.01 | – | – | –
Cc1onc(-c2cccc(Cl)c2Cl)c1C(=O)N1CCC(c2ccc([N+](=O)[O-])cc2Cl)CC1 [Compound 1d, (4-(2-Chloro-4-nitrophenyl)piperidin-1-yl)(3-(2,3-dichlorophenyl)-5-methylisoxazol-4-yl)methanone] | – | moderate activity | 21.572 ± 0.015 | – | – | –
Cc1onc(-c2ccco2)c1C(=O)N1CCC(c2ccc([N+](=O)[O-])cc2Cl)CC1 [Compound 1h, (4-(2-Chloro-4-nitrophenyl)piperidin-1-yl)(3-(furan-2-yl)-5-methylisoxazol-4-yl)methanone] | – | moderate activity | 16.226 ± 0.012 | – | – | –
Cc1onc(-c2ccccc2)c1C(=O)N1CCN(c2ccc([N+](=O)[O-])cc2Cl)CC1 [nucleozin, Nucleozin] | – | – | – | nanomolar | protected mice | –
(4-(2-Chloro-4-nitrophenyl)piperidin-1-yl)(3-methyl-5-styrylisoxazol-4-yl)methanone [Compound 1i] | – | moderate activity | – | – | – | 34.483 ± 0.014
CSc1ccccc1-c1noc(C)c1C(=O)N1CCC(c2ccc([N+](=O)[O-])cc2Cl)CC1 [Compound 1c, (4-(2-Chloro-4-nitrophenyl)piperidin-1-yl)(5-methyl-3-(2-(methylthio)phenyl)isoxazol-4-yl)methanone] | 398.41 | excellent activity than ribavirin | 0.502 ± 0.002 | – | – | –
Cc1onc(-c2ccccc2F)c1C(=O)N1CCC(c2ccc([N+](=O)[O-])cc2Cl)CC1 [Compound 1g, (4-(2-Chloro-4-nitrophenyl)piperidin-1-yl)(3-(2-fluorophenyl)-5-methylisoxazol-4-yl)methanone] | 12.27 | excellent activity than ribavirin | 1.356 ± 0.008 | – | – | –
COc1ccc(-c2noc(C)c2C(=O)N2CCC(c3ccc([N+](=O)[O-])cc3Cl)CC2)c(OC)c1 [Compound 1f, (4-(2-Chloro-4-nitrophenyl)piperidin-1-yl)(3-(2,4-dimethoxyphenyl)-5-methylisoxazol-4-yl)methanone] | 13.68 | excellent activity than ribavirin | 2.036 ± 0.009 | – | – | –
(5-Benzyl-3-methylisoxazol-4-yl)(4-(2-chloro-4-nitrophenyl) piperidin-1-yl)methanone [Compound 1j] | – | moderate activity | – | – | – | 19.41 ± 0.012
NC(=O)c1ncn([C@@H]2O[C@H](CO)[C@@H](O)[C@H]2O)n1 [Ribavirin, reference compound] | 6.37 | – | 9.891 ± 0.06 | – | – | –
Cc1onc(-c2ccccc2)c1C(=O)N1CCC(c2ccc([N+](=O)[O-])cc2Cl)CC1 [Compound 1a, (4-(2-Chloro-4-nitrophenyl)piperidin-1-yl)(5-methyl-3-phenylisoxazol-4yl)methanone] | 22.02 | excellent activity than ribavirin | 0.898 ± 0.004 | – | – | –
COc1ccccc1-c1noc(C)c1C(=O)N1CCC(c2ccc([N+](=O)[O-])cc2Cl)CC1 [Compound 1b, (4-(2-Chloro-4-nitrophenyl)piperidin-1-yl)(3-(2-methoxyphenyl)-5-methylisoxazol-4-yl)methanone] | 272.93 | excellent activity than ribavirin | 0.253 ± 0.001 | – | – | –
